Tests used:
[1] = molecular target: 3',5'-cyclic-AMP phosphodiesterase 4A (Homo sapiens, UniProt P27815); experiment: Selectivity interaction (Enzyme panel (AstraZeneca, AlphaScreen, functional assay)) EUB0000621a PDE4A
[2] = molecular target: Proto-oncogene tyrosine-protein kinase Src (Homo sapiens, UniProt P12931); experiment: Selectivity interaction (KinaseProfiler screening (Millipore)) EUB0000601a SRC; settings: at 3 µM
[3] = molecular target: Platelet-derived growth factor receptor alpha (Homo sapiens, UniProt P16234); experiment: Selectivity interaction (Kinase screening (Upstate/Millipore)) EUB0000604a PDGFRA
Platelet-derived growth factor receptor alpha, sequence (P16234 whole entry): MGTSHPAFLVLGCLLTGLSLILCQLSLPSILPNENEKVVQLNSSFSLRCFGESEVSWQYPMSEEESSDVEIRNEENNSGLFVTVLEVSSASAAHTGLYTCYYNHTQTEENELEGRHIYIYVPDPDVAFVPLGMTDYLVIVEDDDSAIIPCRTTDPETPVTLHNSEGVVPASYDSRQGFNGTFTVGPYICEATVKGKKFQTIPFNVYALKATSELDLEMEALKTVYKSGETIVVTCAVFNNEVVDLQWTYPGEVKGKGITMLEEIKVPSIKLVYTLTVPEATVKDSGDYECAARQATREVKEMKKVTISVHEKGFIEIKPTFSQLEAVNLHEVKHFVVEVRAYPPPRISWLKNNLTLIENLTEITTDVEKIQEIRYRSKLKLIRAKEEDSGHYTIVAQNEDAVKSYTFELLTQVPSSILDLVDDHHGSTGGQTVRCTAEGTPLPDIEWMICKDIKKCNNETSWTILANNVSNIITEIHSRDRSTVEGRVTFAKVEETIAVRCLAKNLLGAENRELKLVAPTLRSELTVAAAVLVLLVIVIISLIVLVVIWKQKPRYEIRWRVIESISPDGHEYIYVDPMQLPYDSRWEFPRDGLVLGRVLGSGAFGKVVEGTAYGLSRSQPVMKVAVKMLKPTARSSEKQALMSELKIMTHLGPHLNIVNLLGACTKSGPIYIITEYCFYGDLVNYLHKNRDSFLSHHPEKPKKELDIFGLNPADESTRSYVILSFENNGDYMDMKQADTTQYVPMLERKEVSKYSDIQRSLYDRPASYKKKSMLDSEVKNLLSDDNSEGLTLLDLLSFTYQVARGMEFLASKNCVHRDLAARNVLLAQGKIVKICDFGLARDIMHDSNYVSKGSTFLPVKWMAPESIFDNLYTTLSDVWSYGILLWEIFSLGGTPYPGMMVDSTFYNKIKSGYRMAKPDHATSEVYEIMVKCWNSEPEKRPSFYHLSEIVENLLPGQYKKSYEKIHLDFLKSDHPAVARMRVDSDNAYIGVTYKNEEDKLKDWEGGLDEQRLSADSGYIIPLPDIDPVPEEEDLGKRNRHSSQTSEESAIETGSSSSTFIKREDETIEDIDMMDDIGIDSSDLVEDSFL

[4] = molecular target: Mitogen-activated protein kinase kinase kinase 11 (Homo sapiens) (UniProt Q16584); experiment: Selectivity interaction (Kinase panel (Invitrogen)) EUB0000639a MAP3K11; settings: at 200 nM
[5] = molecular target: Proto-oncogene tyrosine-protein kinase ROS (Homo sapiens) (UniProt P08922); experiment: Selectivity interaction (Kinase panel (Invitrogen)) EUB0000639a ROS1; settings: at 200 nM
[6] = molecular target: High affinity nerve growth factor receptor (Homo sapiens, UniProt P04629); experiment: Selectivity interaction (Kinase panel (literature)) EUB0001199aCl NTRK1; settings: at 1 µM
[7] = molecular target: Homeodomain-interacting protein kinase 3 (Homo sapiens, UniProt Q9H422); experiment: Selectivity interaction (Kinase panel (Z-LYTE Assay)) EUB0001632a HIPK3; settings: at 10 µM
[8] = molecular target: T1, Serine/threonine-protein kinase RIO1 (Homo sapiens) (UniProt Q9BRS2); experiment: Selectivity interaction (KinomeScan (DiscoverX)) EUB0000695a RIOK1; settings: at 100 nM
T1 sequence (whole entry): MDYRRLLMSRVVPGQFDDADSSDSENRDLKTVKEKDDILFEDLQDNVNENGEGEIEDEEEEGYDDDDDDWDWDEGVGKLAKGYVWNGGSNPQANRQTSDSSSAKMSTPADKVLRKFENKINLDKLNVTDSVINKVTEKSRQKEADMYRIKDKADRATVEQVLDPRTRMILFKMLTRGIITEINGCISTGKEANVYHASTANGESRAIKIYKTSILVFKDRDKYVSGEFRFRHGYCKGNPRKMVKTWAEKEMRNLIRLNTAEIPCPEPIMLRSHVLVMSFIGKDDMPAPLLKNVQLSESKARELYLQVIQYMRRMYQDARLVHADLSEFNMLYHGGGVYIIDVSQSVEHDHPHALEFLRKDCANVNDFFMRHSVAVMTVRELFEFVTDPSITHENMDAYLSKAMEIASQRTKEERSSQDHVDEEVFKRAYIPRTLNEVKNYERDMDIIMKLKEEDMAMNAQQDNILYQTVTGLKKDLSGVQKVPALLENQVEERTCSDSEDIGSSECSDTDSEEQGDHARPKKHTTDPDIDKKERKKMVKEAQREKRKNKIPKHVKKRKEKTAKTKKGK

[9] = molecular target: Glycogen synthase kinase-3 alpha (Homo sapiens, UniProt P49840); experiment: Selectivity interaction (KinomeScan (DiscoverX)) EUB0000229b GSK3A; settings: at 10 µM
[10] = molecular target: Serine/threonine-protein kinase 25 (Homo sapiens) (UniProt O00506); experiment: Selectivity interaction (KinomeScan (DiscoverX)) EUB0000229b STK25; settings: at 10 µM
Serine/threonine-protein kinase 25 (Homo sapiens), sequence (O00506 whole entry, looked up): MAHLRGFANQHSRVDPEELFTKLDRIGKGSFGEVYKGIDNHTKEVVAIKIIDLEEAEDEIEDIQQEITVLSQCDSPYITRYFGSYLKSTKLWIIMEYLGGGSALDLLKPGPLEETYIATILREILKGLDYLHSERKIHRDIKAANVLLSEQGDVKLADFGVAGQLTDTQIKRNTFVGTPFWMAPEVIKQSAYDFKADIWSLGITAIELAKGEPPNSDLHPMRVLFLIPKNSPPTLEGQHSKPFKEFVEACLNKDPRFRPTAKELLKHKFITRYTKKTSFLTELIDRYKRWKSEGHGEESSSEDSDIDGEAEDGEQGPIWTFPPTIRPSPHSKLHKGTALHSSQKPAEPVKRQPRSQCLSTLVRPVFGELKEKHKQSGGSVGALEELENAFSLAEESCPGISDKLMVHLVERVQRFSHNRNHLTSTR

[11] = molecular target: Tyrosine-protein kinase Yes (Homo sapiens) (UniProt P07947); experiment: Selectivity interaction (KinomeScan (DiscoverX)) EUB0000229b YES1; settings: at 10 µM
[12] = molecular target: T2, Mitogen-activated protein kinase kinase kinase 15 (Homo sapiens) (UniProt Q6ZN16); experiment: Selectivity interaction (KinomeScan (DiscoverX)) EUB0001079a MAP3K15; settings: at 1 µM
T2 sequence (whole entry): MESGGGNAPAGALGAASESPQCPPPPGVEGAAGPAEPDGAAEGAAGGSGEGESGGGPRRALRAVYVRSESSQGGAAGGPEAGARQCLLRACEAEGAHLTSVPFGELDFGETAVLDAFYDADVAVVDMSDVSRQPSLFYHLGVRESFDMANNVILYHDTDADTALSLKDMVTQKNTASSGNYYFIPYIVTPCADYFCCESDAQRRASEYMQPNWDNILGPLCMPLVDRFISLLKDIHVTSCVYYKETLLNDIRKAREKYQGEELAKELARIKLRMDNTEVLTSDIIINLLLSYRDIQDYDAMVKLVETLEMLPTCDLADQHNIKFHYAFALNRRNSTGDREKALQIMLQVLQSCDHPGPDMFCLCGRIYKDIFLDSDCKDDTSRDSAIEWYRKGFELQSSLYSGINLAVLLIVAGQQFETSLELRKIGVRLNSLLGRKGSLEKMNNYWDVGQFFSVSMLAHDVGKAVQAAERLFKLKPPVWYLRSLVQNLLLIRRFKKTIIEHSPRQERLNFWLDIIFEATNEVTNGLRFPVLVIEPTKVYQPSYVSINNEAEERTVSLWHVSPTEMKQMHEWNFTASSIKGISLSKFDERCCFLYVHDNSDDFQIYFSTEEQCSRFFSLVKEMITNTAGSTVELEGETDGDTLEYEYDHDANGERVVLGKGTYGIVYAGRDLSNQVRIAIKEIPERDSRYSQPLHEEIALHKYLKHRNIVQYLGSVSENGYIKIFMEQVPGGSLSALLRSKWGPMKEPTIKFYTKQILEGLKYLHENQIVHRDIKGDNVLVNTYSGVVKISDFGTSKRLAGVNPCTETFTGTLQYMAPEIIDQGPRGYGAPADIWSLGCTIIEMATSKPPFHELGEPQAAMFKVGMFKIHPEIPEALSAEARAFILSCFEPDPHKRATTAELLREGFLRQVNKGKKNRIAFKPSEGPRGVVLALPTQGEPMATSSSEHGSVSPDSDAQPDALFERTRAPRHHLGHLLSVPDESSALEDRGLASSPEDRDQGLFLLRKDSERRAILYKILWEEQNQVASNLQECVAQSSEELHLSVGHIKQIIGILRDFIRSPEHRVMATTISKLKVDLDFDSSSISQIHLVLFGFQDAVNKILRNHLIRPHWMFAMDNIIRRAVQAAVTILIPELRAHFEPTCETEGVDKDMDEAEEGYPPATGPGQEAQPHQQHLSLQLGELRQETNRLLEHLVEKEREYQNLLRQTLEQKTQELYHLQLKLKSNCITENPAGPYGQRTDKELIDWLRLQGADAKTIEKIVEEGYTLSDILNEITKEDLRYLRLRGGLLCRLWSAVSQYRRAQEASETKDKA

[13] = molecular target: Tyrosine-protein kinase ABL2 (Homo sapiens, UniProt P42684); experiment: Selectivity interaction (ProQinase) EUB0000171b ABL2
Tyrosine-protein kinase ABL2, sequence (P42684 whole entry): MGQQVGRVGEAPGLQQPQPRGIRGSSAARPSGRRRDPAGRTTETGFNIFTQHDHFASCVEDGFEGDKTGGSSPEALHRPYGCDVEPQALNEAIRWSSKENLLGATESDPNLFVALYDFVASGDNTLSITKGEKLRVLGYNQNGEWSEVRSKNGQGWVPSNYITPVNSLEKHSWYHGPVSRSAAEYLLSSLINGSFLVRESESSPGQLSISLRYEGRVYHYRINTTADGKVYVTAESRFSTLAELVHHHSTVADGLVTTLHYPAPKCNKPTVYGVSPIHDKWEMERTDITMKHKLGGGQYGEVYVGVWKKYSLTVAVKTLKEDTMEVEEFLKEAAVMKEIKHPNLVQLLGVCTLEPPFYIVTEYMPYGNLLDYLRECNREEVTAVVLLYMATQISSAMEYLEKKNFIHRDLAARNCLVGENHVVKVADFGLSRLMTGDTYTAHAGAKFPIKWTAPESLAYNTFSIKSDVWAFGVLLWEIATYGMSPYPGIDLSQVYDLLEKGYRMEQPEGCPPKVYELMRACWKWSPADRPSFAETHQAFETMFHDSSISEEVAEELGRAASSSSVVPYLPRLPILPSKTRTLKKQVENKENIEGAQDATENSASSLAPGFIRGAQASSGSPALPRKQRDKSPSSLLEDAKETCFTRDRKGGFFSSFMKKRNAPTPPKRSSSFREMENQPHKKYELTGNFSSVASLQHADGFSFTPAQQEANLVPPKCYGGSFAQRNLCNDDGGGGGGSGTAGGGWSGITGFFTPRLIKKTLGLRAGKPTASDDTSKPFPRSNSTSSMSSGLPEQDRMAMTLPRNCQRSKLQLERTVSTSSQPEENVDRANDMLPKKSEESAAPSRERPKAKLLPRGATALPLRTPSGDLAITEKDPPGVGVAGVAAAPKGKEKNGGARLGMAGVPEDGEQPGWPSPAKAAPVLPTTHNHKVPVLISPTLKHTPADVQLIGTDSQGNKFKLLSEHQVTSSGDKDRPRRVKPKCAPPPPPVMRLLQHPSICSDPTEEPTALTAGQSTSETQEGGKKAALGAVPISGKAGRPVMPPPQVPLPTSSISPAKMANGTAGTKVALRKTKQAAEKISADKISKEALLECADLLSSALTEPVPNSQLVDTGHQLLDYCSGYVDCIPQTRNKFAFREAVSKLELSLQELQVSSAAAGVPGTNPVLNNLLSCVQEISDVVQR

[14] = molecular target: Tyrosine-protein kinase receptor UFO (Homo sapiens) (UniProt P30530); experiment: Selectivity interaction (KinomeScan (DiscoverX)) EUB0000045b AXL
Tyrosine-protein kinase receptor UFO (Homo sapiens), sequence (P30530 whole entry): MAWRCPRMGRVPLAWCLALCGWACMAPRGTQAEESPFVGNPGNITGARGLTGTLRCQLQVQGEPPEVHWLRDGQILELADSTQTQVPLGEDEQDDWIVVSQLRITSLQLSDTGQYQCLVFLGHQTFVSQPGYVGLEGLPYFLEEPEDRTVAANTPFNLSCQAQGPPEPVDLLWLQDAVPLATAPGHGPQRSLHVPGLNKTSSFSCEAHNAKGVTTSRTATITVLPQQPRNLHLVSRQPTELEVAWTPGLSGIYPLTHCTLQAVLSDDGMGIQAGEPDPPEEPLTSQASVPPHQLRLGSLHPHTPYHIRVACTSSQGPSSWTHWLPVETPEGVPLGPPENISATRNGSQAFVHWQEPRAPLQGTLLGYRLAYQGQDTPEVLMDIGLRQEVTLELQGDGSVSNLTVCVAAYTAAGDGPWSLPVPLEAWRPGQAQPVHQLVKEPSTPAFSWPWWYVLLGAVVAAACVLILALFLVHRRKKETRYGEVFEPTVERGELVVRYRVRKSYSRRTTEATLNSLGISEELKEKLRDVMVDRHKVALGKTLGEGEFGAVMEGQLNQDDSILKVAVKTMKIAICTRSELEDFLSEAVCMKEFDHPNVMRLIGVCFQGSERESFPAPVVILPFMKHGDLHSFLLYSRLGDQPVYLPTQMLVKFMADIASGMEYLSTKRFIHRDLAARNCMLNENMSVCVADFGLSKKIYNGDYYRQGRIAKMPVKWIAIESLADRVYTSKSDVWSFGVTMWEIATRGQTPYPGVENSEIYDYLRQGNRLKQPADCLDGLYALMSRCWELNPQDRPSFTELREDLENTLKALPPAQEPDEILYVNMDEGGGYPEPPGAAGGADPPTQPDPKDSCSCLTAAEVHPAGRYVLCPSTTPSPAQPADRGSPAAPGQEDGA

[15] = molecular target: Mitogen-activated protein kinase 8 (Homo sapiens, UniProt P45983); experiment: Selectivity interaction (KinomeScan (DiscoverX)) EUB0000045b MAPK8
Mitogen-activated protein kinase 8, sequence (P45983 whole entry): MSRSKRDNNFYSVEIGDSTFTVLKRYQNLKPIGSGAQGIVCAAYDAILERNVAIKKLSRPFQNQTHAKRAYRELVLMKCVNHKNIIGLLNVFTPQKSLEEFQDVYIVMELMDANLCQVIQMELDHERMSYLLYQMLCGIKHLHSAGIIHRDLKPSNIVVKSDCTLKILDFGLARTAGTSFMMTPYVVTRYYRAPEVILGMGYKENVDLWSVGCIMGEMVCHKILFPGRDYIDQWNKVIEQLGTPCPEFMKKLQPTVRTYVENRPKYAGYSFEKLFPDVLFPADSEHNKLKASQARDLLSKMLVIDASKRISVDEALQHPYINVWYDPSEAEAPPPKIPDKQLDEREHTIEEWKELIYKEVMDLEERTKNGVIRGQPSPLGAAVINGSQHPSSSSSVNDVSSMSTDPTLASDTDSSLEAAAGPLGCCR

[16] = molecular target: Calcium/calmodulin-dependent protein kinase type 1G (Homo sapiens) (UniProt Q96NX5); experiment: Selectivity interaction (KinomeScan (DiscoverX)) EUB0000607a CAMK1G; settings: at 10 µM

3',5'-cyclic-AMP phosphodiesterase 4A, sequence (P27815 whole entry): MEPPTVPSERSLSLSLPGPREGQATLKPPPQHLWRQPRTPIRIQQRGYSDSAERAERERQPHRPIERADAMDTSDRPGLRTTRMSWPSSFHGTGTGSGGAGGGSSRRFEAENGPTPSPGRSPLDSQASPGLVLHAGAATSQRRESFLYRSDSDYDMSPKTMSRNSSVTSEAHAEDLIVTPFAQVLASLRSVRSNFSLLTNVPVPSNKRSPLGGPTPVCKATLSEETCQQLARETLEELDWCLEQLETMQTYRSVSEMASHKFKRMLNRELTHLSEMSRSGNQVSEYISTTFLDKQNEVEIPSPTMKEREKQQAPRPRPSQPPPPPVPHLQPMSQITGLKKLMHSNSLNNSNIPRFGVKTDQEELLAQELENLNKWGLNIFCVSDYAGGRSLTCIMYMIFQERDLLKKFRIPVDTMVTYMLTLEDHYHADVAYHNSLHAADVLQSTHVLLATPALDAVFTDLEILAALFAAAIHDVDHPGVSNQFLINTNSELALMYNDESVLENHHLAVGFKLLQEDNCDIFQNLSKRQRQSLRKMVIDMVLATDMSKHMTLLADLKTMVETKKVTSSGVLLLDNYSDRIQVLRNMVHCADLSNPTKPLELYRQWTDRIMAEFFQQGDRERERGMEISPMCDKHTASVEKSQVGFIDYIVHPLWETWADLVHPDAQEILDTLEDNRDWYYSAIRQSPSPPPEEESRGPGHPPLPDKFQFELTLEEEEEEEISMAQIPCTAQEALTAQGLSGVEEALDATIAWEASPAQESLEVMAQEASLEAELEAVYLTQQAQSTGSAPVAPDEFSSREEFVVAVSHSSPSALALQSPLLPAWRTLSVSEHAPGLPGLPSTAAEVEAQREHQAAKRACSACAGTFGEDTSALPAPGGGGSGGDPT

Compound `Cc1cc([C@@H](C)Nc2ccccc2C(=O)O)c2nc(N3CCOCC3)cc(=O)n2c1` [AZD-6482] has an IC50 [1] of 17 µM.

`CCc1cc(Nc2nccc(-c3c(-c4ccc(OC)c(C(=O)Nc5c(F)cccc5F)c4)nc4ccccn34)n2)c(OC)cc1N1CCC(N2CCN(S(C)(=O)=O)CC2)CC1` gave a % of inhibition [2] of 43%.

`Cc1cnc(Nc2ccc(F)cc2Cl)nc1-c1c[nH]c(C(=O)N[C@H](CO)c2cccc(Cl)c2)c1` showed a % of inhibition [3] of 3%.

`CC[C@@H]1[C@H](F)C(=O)N[C@@H]1COc1nccc2cc(C(N)=O)c(OC)cc12` [ZIMLOVISERTIB] was tested, and the % of inhibition [4] was 0.995% and the % of inhibition [5] was 18.1%.

For `CN1Cc2nccc(-c3cn(C)nc3-c3ccc(F)cc3)c2C1=O`, the % of inhibition [6] was 15%.

`Cn1cc(-n2cnc3c(NCc4nc5cc(Cl)c(Cl)cc5[nH]4)nc(N4CCOCC4)nc32)cn1` showed a % of control [7] of 0.256%.

With `Cc1cc(F)c(C(=O)Nc2cccc(-c3nncn3C(C)C)n2)cc1-n1cnc(C2CC2)c1` the % of control [8] was 100%.

For `COc1cc(N(C)c2ccnc3ccc(C(F)(F)F)cc23)cc(OC)c1OC`, the % binding [9] was 93%, the % binding [10] was 88% and the % binding [11] was 83%.

Compound `Nc1cnc(N2CCc3cc(S(=O)(=O)Nc4c(F)cc(Cl)cc4F)cc(N4CCCC4=O)c32)nc1` [TP-020n] has a % of control [12] of 100%.

For `C=CC(=O)Nc1cccc(C(=O)Nc2ccc(Nc3cc(-c4[nH]c(SC)nc4C)ccn3)cc2)c1`, the % of control ([13]; at 1 µM) was 74% and the % of control ([13]; at 5 µM) was 84%.

Compound `C=CC(=O)Nc1cc(-n2c(=O)ccc3cnc4ccc(-c5ccc(NS(C)(=O)=O)cc5)cc4c32)ccc1C` has a % of control ([14]; at 1 µM) of 100%, a % of control ([14]; at 10 µM) of 100% and a % of control ([15]; at 1 µM) of 93%. It also gave a % of control ([15]; at 10 µM) of 14%.

`CNC(=O)Nc1ccc(-c2nc(N3CC4CCC(C3)O4)c3cnn(C4CCC5(CC4)OCCO5)c3n2)cc1` was tested, and the % of control [16] was 100%.

Reference: ChEMBL document CHEMBL5465560, “Selectivity Literature for EUbOPEN Chemogenomic Library” (2024)
